In this test the test system is cucumber phytophthora blight fungi (Phytophthora capsici). As to the kind of experiment: Test for controlling cucumber phytophthora blight fungi (growth in PDB medium, absorbance at 600 nm). The test is classed as cell-based. Particulars: 4.5 mg in 100 μL dimethyl sulfoxide, 1 μL of it in 150 μL PDB medium with zoospores, 27° C., three days, Efficacy=100×(X−Y)/X. The method, then:
Four point five (4.5) milligrams of the present compound was diluted with 100 μL of dimethyl sulfoxide. One (1) μL portion of the diluted liquid was dispensed into a titer plate (96 wells), and thereto was then dispensed 150 μL of a potato dextrose broth medium (PDB medium) containing zoospores of cucumber phytophthora blight fungi (Phytophthora capsici). This plate was cultured at 27° C. for three days, thereby allowing the cucumber phytophthora blight fungi to undergo proliferation, and the absorbance at 600 nm of each well of the titer plate was then measured to determine a degree of growth of the cucumber phytophthora blight fungi. The efficacy was calculated from the determined degree of growth by the below-mentioned “Equation 1”. As a result, the efficacy of the Present compound was 80% or more. Efficacy=100×(X−Y)/X “Equation 1” where X: Degree of fungal growth in non-treated area Y: Degree of fungal growth in treated area
In the test example, a non-treated area means an area in which a test was conducted in the same manner, except that dimethyl sulfoxide was dispensed in place of the present compound diluted with dimethyl sulfoxide.

This passage reports Efficacy results from patent US10844019B2, “1-phenyl-3-carbamoyl urea compound, and use thereof” (Sumitomo Chemical Company, Limited, priority 2016, dated 2020).

As for `CCOC(=O)COc1ncccc1Oc1cc(NC(=O)NC(N)=O)c(F)cc1Cl` [Present compound], the Efficacy is listed as not below 80%.

With `CCOC(=O)COc1ncccc1Oc1cc(NC(C)=O)c(F)cc1Cl` [N-[4-chloro-2-fluoro-5-{2-(ethoxycarbonyl)methoxy-3-pyridyloxy}phenyl]acetamide], the Efficacy entry is “less than 50%”.
